Measured values: the supplement of paper PMC10307832

Experiments:
Assay in all cases: relative viability (nuclei count vs DMSO), 5 days (fraction); higher = more cells survive
[1] = compound: Nc1nc(Nc2ccc3c(c2)CC[C@@H](N2CCCC2)CC3)nn1-c1cc2c(nn1)-c1ccccc1CCC2 [Bemcentinib] + CC(=O)c1c(C)c2cnc(Nc3ccc(N4CCNCC4)cn3)nc2n(C2CCCC2)c1=O [Palbociclib] (partner 0.5 µM)
Method in brief: (§1)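 Lung cancer cell lines in 1536-well plates got either a single drug or a fixed anchor-drug dose together with five library-drug doses (not always all listed) in √10 steps, by pin tool, on the day after seeding. Nuclei were counted after 5 days, and relative viability is the treated-to-vehicle ratio of nuclei counts. Values are medians of duplicate plates.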

[2] = compound: CC1=CC=C(C=C1)C(=O)CN2C3=C(CCCC3)SC2=N [Pifithrin_alpha] + CC1(C)CCC(c2ccc(Cl)cc2)=C(CN2CCN(c3ccc(C(=O)NS(=O)(=O)c4ccc(N[C@H](CCN5CCOCC5)CSc5ccccc5)c(S(=O)(=O)C(F)(F)F)c4)cc3)CC2)C1 [Navitoclax] (partner 0.5 µM)
Method in brief: as §1

[3] = compound: CNC(=O)c1ccccc1Sc1ccc2c(/C=C/c3ccccn3)n[nH]c2c1 [Axitinib] + CC(=O)c1c(C)c2cnc(Nc3ccc(N4CCNCC4)cn3)nc2n(C2CCCC2)c1=O [Palbociclib] (partner 0.5 µM)
Method in brief: as §1

[4] = compound: CC1=CC=C(C=C1)C(=O)CN2C3=C(CCCC3)SC2=N [Pifithrin_alpha] + NC(=O)Nc1cc(-c2cccc(F)c2)sc1C(=O)N[C@H]1CCCNC1 [AZD7762] (partner 0.2 µM)
Method in brief: as §1

| Cell Line | relative viability ([1]; first compound 0.04 µM) | relative viability ([1]; first compound 0.1265 µM) | relative viability ([1]; first compound 0.4 µM) | relative viability ([1]; first compound 1.265 µM) | relative viability ([1]; first compound 4 µM) | relative viability ([2]; first compound 1 µM) | relative viability ([2]; first compound 3.162 µM) | relative viability ([2]; first compound 10 µM) | relative viability ([2]; first compound 31.62 µM) | relative viability ([2]; first compound 100 µM) | relative viability ([3]; first compound 0.005 µM) | relative viability ([3]; first compound 0.01581 µM) | relative viability ([3]; first compound 0.05 µM) | relative viability ([3]; first compound 0.1581 µM) | relative viability ([3]; first compound 0.5 µM) | relative viability ([4]; first compound 1 µM) | relative viability ([4]; first compound 3.162 µM) | relative viability ([4]; first compound 10 µM) | relative viability ([4]; first compound 31.62 µM) | relative viability ([4]; first compound 100 µM) |
| --- | --- | --- | --- | --- | --- | --- | --- | --- | --- | --- | --- | --- | --- | --- | --- | --- | --- | --- | --- | --- |
| SK-MES-1 | 0.314 | 0.33 | 0.325 | 0.316 | 0.317 | 1.19 | 1.17 | 1.16 | 0.829 | 0.924 | 0.309 | 0.332 | 0.347 | 0.344 | 0.353 | – | – | – | – | – |
| NCI-H1648 | 0.255 | 0.236 | 0.276 | 0.297 | 0.291 | – | – | – | – | – | 0.215 | 0.291 | 0.219 | 0.273 | 0.235 | 0.607 | 0.959 | 0.836 | 0.582 | 0.504 |
| PC-3 [JPC-3] | 0.548 | 0.577 | 0.522 | 0.592 | 0.551 | 0.749 | 0.74 | 0.746 | 0.789 | 0.726 | 0.558 | – | 0.556 | 0.603 | 0.61 | – | 0.678 | – | 0.464 | 0.446 |
| NCI-H1666 | 0.656 | 0.645 | 0.675 | 0.683 | 0.672 | 0.84 | 0.61 | 0.432 | 0.635 | 0.354 | 0.689 | 0.606 | 0.653 | 0.631 | 0.657 | 0.767 | 0.717 | 0.677 | 0.581 | 0.491 |
| IA-LM | – | – | – | – | – | 0.747 | 0.339 | 0.259 | 0.275 | 0.262 | – | – | – | – | – | – | – | – | – | – |
| HCC-78 | 0.461 | 0.455 | 0.438 | 0.409 | 0.48 | 0.752 | 0.768 | 0.623 | – | 0.783 | 0.504 | 0.408 | 0.469 | 0.5 | 0.449 | – | 0.509 | 0.566 | 0.54 | 0.526 |
| HCC-366 | 0.398 | 0.508 | 0.528 | 0.443 | 0.519 | 1.12 | 1.11 | 0.886 | – | 0.925 | 0.438 | 0.378 | 0.399 | 0.36 | 0.524 | 0.23 | 0.183 | 0.183 | – | 0.174 |
| NCI-H520 | 0.235 | 0.198 | 0.265 | 0.221 | 0.352 | 1.11 | 1.32 | 1.16 | 0.94 | 1.12 | 0.242 | 0.19 | 0.205 | 0.194 | 0.187 | – | – | – | – | – |
| NCI-H1355 | 0.396 | 0.403 | 0.419 | 0.415 | 0.437 | 0.812 | 0.675 | 0.692 | 0.556 | 0.563 | 0.415 | 0.443 | 0.426 | 0.414 | 0.409 | 0.857 | 0.633 | 0.511 | 0.463 | 0.514 |
